Test results taken from ChEMBL document CHEMBL4000246, “Total synthesis and cytotoxicity of Leucetta alkaloids” (Bioorg Med Chem, 2017).

Test system: MCF7
Assay: Cytotoxicity against human MCF7 cells assessed as growth inhibition after 96 hrs by MTT assay
Format: functional, cell-based

SMILES	IC50 [µM]
CN1C(=O)N=C(Nc2nc(Cc3ccc4c(c3)OCO4)cn2C)C1=O [CLATHRIDINE]	> 100
Cn1cnc(Cc2ccc3c(c2)OCO3)c1	> 100
COc1ccc(-c2c3ncn(C)c3cc3cc(OC)c(OC)c(OC)c23)cc1	> 100
COc1ccc(-c2c3cc(OC)c(OC)c(OC)c3cc3c2ncn3C)cc1	68.2
COc1ccc(-c2c3[nH]c(=O)n(C)c3cc3cc(OC)c(OC)c(OC)c23)cc1	91.9
COC1=C(OC)C(=O)c2c(cc3c(ncn3C)c2-c2ccc(OC)cc2)C1=O	92
COc1ccc(-c2c3cc(O)c(OC)cc3cc3c2ncn3C)cc1	41.1
COc1ccc(-c2c3cc(OCc4ccccc4)c(OC)cc3cc3c2ncn3C)cc1	76.9
COc1ccc(Cc2nc(NC3=NC(=O)N(C)C3=O)n(C)c2Cc2ccc(OC)cc2)cc1	5.08
COc1ccc(-c2c3cc(OC)c(OC)cc3cc3c2ncn3C)cc1	99.8
COc1ccc(-c2c3cc(O)c(OC)cc3cc3c2[nH]c(=N)n3C)cc1 [KEALIININE A]	> 100
COc1ccc(Cn2cc(Cc3ccc(OC)c(OC)c3)nc2/N=C2/NC(=O)N(C)C2=O)cc1 [ISONAAMIDINE E]	5.78
COc1ccc(Cc2c(C(OC)c3ccc(OC)cc3)nc(N)n2C)cc1 (stereo unspecified)	22.7
COc1ccc(-c2c3nc(N)n(C)c3cc3cc(OC)c(OC)c(OC)c23)cc1	19.5
COC1=C(OC)C(=O)c2c(cc3c([nH]c(=O)n3C)c2-c2ccc(OC)cc2)C1=O	43.8
COc1ccc(-c2c3cc(OC)c(OC)c(OC)c3cc3c2nc(N)n3C)cc1	4.94
Cn1cc(Cc2ccc3c(c2)OCO3)nc1N	23.4
COc1ccc(Cc2nc(N)n(C)c2Cc2ccc(OC)cc2)cc1	28.8
COc1ccc(-c2c3cc(OC)c(OC)cc3cc3c2nc(N)n3C)cc1	4.4
COC1=C(OC)C(=O)c2c(cc3c(nc(N)n3C)c2-c2ccc(OC)cc2)C1=O	> 100
COc1ccc(Cn2cc(Cc3ccc(OC)c(OC)c3)nc2N)cc1 [ISONAAMINE C]	28
